# Source: PubChem BioAssay (NCI)
#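 48-hour exposure; five concentrations; linearly interpolated endpoints. TGI is the concentration that stops growth completely.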
# Assays:
# Test in all cases: NCI tumour cell line growth inhibition, 48 h
# [1] = tested on: HOP-92 NSCLC
# [2] = tested on: HS 578T breast
# [3] = tested on: NCI/ADR-RES ovarian
# [4] = tested on: HCT-116 colon
# [5] = tested on: NCI-H226 lung
# [6] = tested on: SF-268 CNS
# [7] = tested on: DU-145 prostate
# [8] = tested on: SF-539 CNS
# [9] = tested on: SR leukemia
# [10] = tested on: M14 melanoma
# [11] = tested on: MDA-MB-231 breast
# [12] = tested on: CCRF-CEM leukemia
# [13] = tested on: SW-620 colon
# [14] = tested on: LOX IMVI melanoma
# [15] = tested on: SNB-19 CNS
# [16] = tested on: SK-MEL-5 melanoma
# [17] = tested on: RXF 393 renal
# [18] = tested on: RPMI-8226 leukemia
# [19] = tested on: HOP-62 NSCLC
# [20] = tested on: SN12C renal
# [21] = tested on: EKVX NSCLC
# [22] = tested on: IGROV1 ovarian
# [23] = tested on: OVCAR-3 ovarian
# [24] = tested on: NCI-H522 lung
# [25] = tested on: TK-10 renal
# [26] = tested on: HT29 colon
# [27] = tested on: SNB-75 CNS
# [28] = tested on: HCT-15 colon
# [29] = tested on: OVCAR-8 ovarian
# [30] = tested on: KM12 colon
# [31] = tested on: ACHN renal
# [32] = tested on: COLO 205 colon
# [33] = tested on: UACC-257 melanoma
# [34] = tested on: NCI-H23 lung
# [35] = tested on: HCC-2998 colon
# [36] = tested on: MOLT-4 leukemia
# [37] = tested on: OVCAR-4 ovarian
# [38] = tested on: K-562 leukemia
# [39] = tested on: MDA-N
# [40] = tested on: UO-31 renal
# [41] = tested on: MDA-MB-435
# [42] = tested on: A549 NSCLC
# [43] = tested on: NCI-H460 lung
# [44] = tested on: U251 CNS
# [45] = tested on: SF-295 CNS
# [46] = tested on: UACC-62 melanoma
# [47] = tested on: A498 renal
# [48] = tested on: HL-60(TB) leukemia
# [49] = tested on: OVCAR-5 ovarian
# [50] = tested on: 786-0 renal
# [51] = tested on: PC-3 prostate
# [52] = tested on: CAKI-1 renal
# [53] = tested on: SK-MEL-28 melanoma
# [54] = tested on: MALME-3M melanoma
# [55] = tested on: SK-MEL-2 melanoma
# [56] = tested on: MCF7 breast
# [57] = tested on: SK-OV-3 ovarian
structure (smiles),measurement,setting,value
O=c1c2cc([N+](=O)[O-])ccc2[nH]n1Cc1ccccn1,TGI,[1],> 100 µM
same,TGI,[2],> 100 µM
same,TGI,[3],> 100 µM
same,TGI,[4],> 100 µM
same,TGI,[5],> 100 µM
same,TGI,[6],> 100 µM
same,TGI,[7],> 100 µM
same,TGI,[8],> 100 µM
same,TGI,[9],> 100 µM
same,TGI,[10],> 100 µM
same,TGI,[11],> 100 µM
same,TGI,[12],> 100 µM
same,TGI,[13],> 100 µM
same,TGI,[14],> 100 µM
same,TGI,[15],> 100 µM
same,TGI,[16],> 100 µM
same,TGI,[17],> 100 µM
same,TGI,[18],> 100 µM
same,TGI,[19],> 100 µM
same,TGI,[20],> 100 µM
same,TGI,[21],> 100 µM
same,TGI,[22],> 100 µM
same,TGI,[23],> 100 µM
same,TGI,[24],> 100 µM
same,TGI,[25],> 100 µM
same,TGI,[26],> 100 µM
same,TGI,[27],> 100 µM
same,TGI,[28],> 100 µM
same,TGI,[29],> 100 µM
same,TGI,[30],> 100 µM
same,TGI,[31],> 100 µM
same,TGI,[32],> 100 µM
same,TGI,[33],> 100 µM
same,TGI,[34],> 100 µM
same,TGI,[35],> 100 µM
same,TGI,[36],> 100 µM
same,TGI,[37],> 100 µM
same,TGI,[38],> 100 µM
same,TGI,[39],> 100 µM
same,TGI,[40],> 100 µM
same,TGI,[41],> 100 µM
same,TGI,[42],> 100 µM
same,TGI,[43],> 100 µM
same,TGI,[44],> 100 µM
same,TGI,[45],> 100 µM
same,TGI,[46],> 100 µM
same,TGI,[47],> 100 µM
same,TGI,[48],> 100 µM
same,TGI,[49],> 100 µM
same,TGI,[50],> 100 µM
same,TGI,[51],> 100 µM
same,TGI,[52],> 100 µM
same,TGI,[53],> 100 µM
same,TGI,[54],> 100 µM
C/C1=C\[C@H](C)C[C@H](C)OC(=O)C[C@H](c2ccc(O)cc2)NC(=O)[C@H](Cc2ccc(O)c(I)c2)N(C)C(=O)[C@H](C)NC(=O)[C@@H](C)C1,TGI,[1],0.118 µM
same,TGI,[55],6.78 µM
same,TGI,[2],0.245 µM
same,TGI,[3],18.8 µM
same,TGI,[4],18.6 µM
same,TGI,[5],> 25 µM
same,TGI,[6],0.153 µM
same,TGI,[7],> 25 µM
same,TGI,[9],> 25 µM
same,TGI,[10],> 25 µM
same,TGI,[11],0.433 µM
same,TGI,[12],> 25 µM
same,TGI,[13],> 25 µM
same,TGI,[14],> 25 µM
same,TGI,[15],> 25 µM
same,TGI,[16],11.1 µM
same,TGI,[18],> 25 µM
same,TGI,[19],> 25 µM
same,TGI,[20],22.9 µM
same,TGI,[21],6.84 µM
same,TGI,[22],> 25 µM
same,TGI,[23],> 25 µM
same,TGI,[56],> 25 µM
same,TGI,[24],> 25 µM
same,TGI,[25],> 25 µM
same,TGI,[26],> 25 µM
same,TGI,[27],10.3 µM
same,TGI,[28],> 25 µM
same,TGI,[29],3.45 µM
same,TGI,[30],> 25 µM
same,TGI,[31],> 25 µM
same,TGI,[32],> 25 µM
same,TGI,[57],16.9 µM
same,TGI,[34],> 25 µM
same,TGI,[36],> 25 µM
same,TGI,[37],0.0186 µM
same,TGI,[38],> 25 µM
same,TGI,[39],13.8 µM
same,TGI,[40],0.185 µM
same,TGI,[41],5.18 µM
same,TGI,[42],> 25 µM
same,TGI,[44],6.9 µM
same,TGI,[45],> 25 µM
same,TGI,[46],8.77 µM
same,TGI,[47],0.0948 µM
same,TGI,[49],> 25 µM
same,TGI,[50],> 25 µM
same,TGI,[51],> 25 µM
same,TGI,[53],> 25 µM
same,TGI,[54],3.06 µM
